The test system of experiment [1] is HEC265. As to the kind of experiment: CFA 10-14 day clonogenic assay. Format: cell-based. The settings on record: Homo sapiens.
Experiment [2] has as its system HEC108. As to the kind of experiment: 4 day proliferation assay (CellTiter-Glo). To be noted: Homo sapiens, 96 h, read-out: 4 day assay GI50. A general note: Cellular ATP, detected with luciferase, serves as a proxy for viable cell number.
In experiment [3] the test system is SNU407. In words: 4 day proliferation assay (CellTiter-Glo). To be noted: Homo sapiens, SNU-407, 96 h, read-out: 4 day assay GI50.
Experiment [4] concerns RL952. As to the kind of experiment: CFA 10-14 day clonogenic assay. To be noted: Homo sapiens, RL95-2. Format: cell-based.

These results are taken from publication PMC11078746 (Nature, 2024).

As for `CCc1c(N2CCN(C(=O)c3ncnc(C)c3O)CC2)c(=O)n2nc(C3=CCOCC3)nc2n1CC(=O)Nc1ccc(C(F)(F)F)cc1Cl` [HRO761], the GI50 (as a rule, the concentration giving 50% growth inhibition) was determined as 61 nM in experiment [1], 1460 nM in experiment [2], 440 nM in experiment [3] and 16 nM in experiment [4].
